# Reference: patent US7399743B2, “Targeted thrombosis” (The Scripps Research Institute, priority 2001, dated 2008)
# Entries after “also recorded” stand apart in the source; their conditions may differ.
# B1: TF1-218: soluble extracellular domain of human Tissue Factor, SEQ ID NO:4 (protein, listed as Homo sapiens)
# chain: SGTTNTVAAYNLTWKSTNFKTILEWEPKPVNQVYTVQISTKSGDWKSKCFYTTDTECDLTDEIVKDVKQTYLARVFSYPAGNVESTGSAGEPLYENSPEFTPYLETNLGQPTIQSFEQVGTKVNVTVEDERTLVRRNNTFLSLRDVFGKDLIYTLYYWKSSSSGKKTAKTNTNEFLIDVDKGENYCFSVQAVIPSRTVNRKSTDSPVECMGQEKGEFR
# B2: truncated Tissue Factor: recombinant Tissue Factor containing only the extracellular domain, 219 amino acids, soluble (protein, listed as Homo sapiens)
# chain: SGTTNTVAAYNLTWKSTNFKTILEWEPKPVNQVYTVQISTKSGDWKSKCFYTTDTECDLTDEIVKDVKQTYLARVFSYPAGNVESTGSAGEPLYENSPEFTPYLETNLGQPTIQSFEQVGTKVNVTVEDERTLVRRNNTFLSLRDVFGKDLIYTLYYWKSSSSGKKTAKTNTNEFLIDVDKGENYCFSVQAVIPSRTVNRKSTDSPVECMGQEKGEFRE
# Columns and labels:
# LnCap cells = assay: cell proliferation and viability assay (trypan blue); settings: without / with D-β-E 0.1 uM
# Method: A cell proliferation and viability assay was employed to assess DβE inhibitor activity using trypan blue staining. LnCap cells (4×10^4 cells/well) were seeded in 96 well plates. Different concentrations of the DβE inhibitor or the Asp-Glu (D-E) substrate were added to the media as indicated. The % cell viability was determined 48 hours after treatment as the number of living cells (unstained) divided by total cells count (stain+unstained cells).
# A cell proliferation and viability assay was employed to assess DβE inhibitor activity using trypan blue staining. LnCap cells (4×10^4 cells/well) were seeded in 96 well plates. Different concentrations of the DβE inhibitor or the Asp-Glu (D-E) substrate were added to the media at the concentrations indicated in FIG. 13A. The % cell viability was determined 48 hours after treatment as the number of living cells (unstained) divided by total cells count (stain+unstained cells).
# The cytotoxic effect of methotrexate was assessed with and without the presence of the PSMA inhibitor (D-β-E) or PSMA substrate (D-E) using a cell proliferation and viability assay.
# NAALADase = settings: read-out: Ki, inhibition of NAALADase activity; cited from earlier work
# [1] = test system: integrin-expressing CHO K1 cells; assay: cell-mediated coagulation assay with CHO K1 cells and human plasma; format: cell-based
# Method: Coagulation assays were performed using an established procedure with some modifications to include a step for binding Tissue Factor constructs to cells. Platelet depleted, citrated human plasma pooled from multiple donors was used for these experiments. Cells are dislodged with trypsin free cell dissociation buffer (Gibco), and washed twice with TBS. Cells were then counted with cytometer. Only cells with viability greater than 90% were used for the assay. Varying concentrations of thrombogen were incubated with 10^5 cells in 100 ul TBS containing Ca^++ 10 mM and Mg^++ 5 mM for 15 minutes at 37° C. The assays were initiated by addition of 100 ul of pooled citrated plasma pre-warmed to 37° C. Clotting times were recorded as the interval between assay initiation and clot appearance.
# Activation of the coagulation cascade was measured using a coagulation assay. Varying concentrations of Fn-TF or Tissue Factor were incubated with CHO K1 cells for 15 minutes. Coagulation assays were initiated with addition of 100 ul of pooled normal human plasma. The coagulation time was recorded as the interim between the initiation of assay and the appearance of the first fibrin strands.
# [2] = median lethal dose in mice; format: in vivo; settings: 20 gm Balb/C mice
# Factor VIIa = biological target: T1, Factor VIIa (Homo sapiens, UniProt P08709); assay: amidolytic assay of Factor VIIa bound to Fn-TF or TF 1-218; format: biochemical; settings: Factor VIIa 5nM, chromozym t-PA
# T1 sequence (P08709 61-212 limits assumed): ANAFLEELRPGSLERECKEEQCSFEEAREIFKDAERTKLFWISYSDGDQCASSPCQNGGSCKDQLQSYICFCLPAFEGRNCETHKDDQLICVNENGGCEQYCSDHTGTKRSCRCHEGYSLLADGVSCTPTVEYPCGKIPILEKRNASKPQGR
# T1 sequence (P08709 213-466 limits assumed): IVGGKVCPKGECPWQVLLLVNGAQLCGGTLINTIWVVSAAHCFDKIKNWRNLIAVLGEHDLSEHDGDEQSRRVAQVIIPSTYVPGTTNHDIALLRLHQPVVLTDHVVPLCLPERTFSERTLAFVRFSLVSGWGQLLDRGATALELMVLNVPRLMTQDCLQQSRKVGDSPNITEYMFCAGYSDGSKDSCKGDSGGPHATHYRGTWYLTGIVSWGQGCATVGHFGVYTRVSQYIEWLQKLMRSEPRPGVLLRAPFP
# Method: The catalytic activity of Factor VIIa bound to Fn-TF for a peptidyl substrate was analyzed by hydrolysis of chromozym t-Pa (Boehringer Mannheim) and compared with that of the soluble TF 1-218. Varying concentrations TF 1-218 or Fn-TF were incubated with Factor VIIa at a final concentration of 5nM in the presence of 5 mM Ca^++ at ambient temperature for 15 minutes. Chromozym t-PA was added to a concentration of 1 mM. The initial rate of hydrolysis was measured at 406 nm with a kinetic micro-titer plate reader for 1 minute.
# Factor X [3] = assay: proteolytic activity of TF construct:Factor VIIa complexes toward Factor X; format: biochemical; settings: soluble complexes, increasing concentration
# Method: The proteolytic activities of both Fn-TF:Factor VIIa and TF 1-218:Factor VIIa complexes toward Factor X were determined by a functional assay (Schullek, Ruf et al. 1994) using Spectrozyme Factor Xa to assess Factor Xa generation. Briefly, varying concentrations of Fn-TF and TF1-218 were pre-incubated with Factor VIIa (75 nM) for 5 minutes at 37° C. in the presence of 5 mM CaCl2. The reaction was initiated by addition of substrate Factor X (1.5 uM). After incubation for 10 minutes at 37° C., the reaction was terminated by adding EDTA to a concentration of 0.1M. The amount of Factor Xa generated was determined by measuring Factor Xa amidolytic activity using […] of the chromogenic substrate Spectrozyme Fxa (American Diagnostica, Greenwich, Conn.). The rate of absorbance increase at 405 nM was measured in a kinetic micro-titer plate reader.
# The effect of the fused docking structure on the proteolytic activity of TF:VIIa was studied by a linked functional assay (Schullek, Ruf et al. 1994). Varying concentrations of Fn-TF or TF1-218 were allowed to bind to 10 pM Factor VIIa for 5 minutes. […] The reaction was stopped by addition of 50 mM EDTA and the amount of Factor Xa generated was determined by measuring the Factor Xa amidolytic activity in the assay mixture using spetrozyme FXa as described above.
# integrin on CHO cells = assay: binding of Fn-TF to integrin-expressing CHO K1 cells (Western blot); settings: for association with CHO cells: varying concentrations, 10^5 CHO K1 cells
# Method: The binding of the Fn-TF protein to the integrin on CHO cells was monitored through direct incubation of varying concentrations of recombinant Fn-TF with 10^5 CHO K1 cells in TBS, 10 mM CaCl2, 5 mM MgSO4. The bound and unbound proteins were separated by centrifugation, and the bound Tissue Factor immunoreactivity was detected by Western blot. The amount of Tissue Factor bound was quantified by comparing the intensity of resulting bands on the membrane to that of a standard curve of Tissue Factor protein of known concentration using a densitometer.
# factor X [4] = settings: native Tissue Factor in phospholipid membrane environment; cited from earlier work
molecule,measurement,setting,value
"CN(Cc1cnc2nc(N)nc(N)c2n1)c1ccc(C(=O)N[C@@H](CCC(=O)O)C(=O)O)cc1 [MTX, methotrexate]",ID50/ID50* (enhancement of tumoricidal activity),LnCap cells,20
"N[C@@H](Cn1oc(=O)[nH]c1=O)C(=O)O [Quisqalic acid, quisqalic acid]",Ki,NAALADase,1.9 µM
Fn-TF: fusion of fibronectin type III repeat domains 8-11 (SEQ ID NO:9) or domain 10 (SEQ ID NO:10) with Tissue Factor residues 3-218,coagulation activity compared with CHO K1 cells expressing approximately 5×10^5 native Tissue Factor molecules,"[1]; 75 nM Fn-TF, 10^5 CHO K1 cells",approximately the same level of coagulation activity
same,coagulation activity,"[1]; approximately 100,000 Fn-TF:integrin complexes per cell, CHO K1 cells","40,000 milliunits"
same,coagulation time,"[1]; approximately 100,000 Fn-TF:integrin complexes per cell, CHO K1 cells, human plasma",about 20 seconds
same,LD50 (median lethal dose),[2],about 8 ug
same,"cofactor enhancement of Factor VIIa amidolytic activity, compared with Tissue Factor",Factor VIIa,Very little difference in amidolytic activity
same,proteolytic activity of the Factor VIIa complex toward Factor X,Factor X [3],increased proteolytic activity similar to the curve obtained with TF1-218
same,Fn-TF molecules bound per cell,integrin on CHO cells; 75 nM Fn-TF incubated with 10^5 CHO K1 cells in 100 ul,approximately 5×10^5
same,association with CHO cells,integrin on CHO cells,increasing amounts of Fn-TF become associated with CHO cells
RGDS: RGDS (SEQ ID NO: 17) peptide that binds integrin (A RGDS peptide.) [reference compound],inhibition of Fn-TF coagulation activity by RGDS peptide,"[1]; Fn-TF (20 nM)+RGDS (500 μM), CHO K1 cells",fully blocked; also recorded: almost completely inhibited
B1,LD50 (median lethal dose),[2],greater than 500 ug
same,association with CHO cells,integrin on CHO cells,no demonstrable association
B2,times less factor X-activating activity than native Tissue Factor,factor X [4],approximately 10^5
